# From ChEMBL document CHEMBL5512619, “Anticancer mechanism of coumarin-based derivatives” (Eur J Med Chem, 2024)
# Tests used:
# [1] = tested on: MCF7; assay: Cytotoxicity against human MCF-7 cells; format: functional, cell-based
# [2] = Inhibition of DNA topoisomerase II (unknown origin)
# [3] = target: Vascular endothelial growth factor receptor 2 (Homo sapiens, UniProt P35968); assay: Inhibition of VEGFR2 (unknown origin)
# [4] = tested on: MCF7; assay: Cytotoxicity against human MCF-7 cells relative to control; format: functional
# [5] = tested on: HeLa; assay: Antiproliferative activity against human HeLa cells incubated for 48 hrs by MTT assay; format: functional, cell-based
# [6] = tested on: A549; assay: Antiproliferative activity against human A549 cells incubated for 48 hrs by MTT assay; format: functional, cell-based; details: A549, 48 h
# [7] = tested on: EL4; assay: Cytotoxicity against mouse EL4 cells by MTT assay; format: functional, cell-based
# [8] = tested on: T-cell; assay: Cytotoxicity against mouse T-lymphocyte cells by MTT assay; format: functional, cell-based
# [9] = Cytotoxicity against mouse LB3 cells by MTT assay; format: functional, cell-based
# [10] = target: Tubulin; assay: Inhibition of tubulin polymerization (unknown origin) by spectrophotometric method; format: protein-complex assay, Homo sapiens
# [11] = tested on: MCF7; assay: Cytotoxicity against human MCF7 cells by MTT assay; format: functional, cell-based
# [12] = tested on: MDA-MB-231; assay: Cytotoxicity against human MDA-MB-231 cells by MTT assay; format: functional, cell-based
# [13] = Cytotoxicity against human Lu1 cells incubated for 72 hrs by MTT assay; format: functional, cell-based; details: Lu1, 72 h
# [14] = target: Epidermal growth factor receptor (Homo sapiens, UniProt P00533); assay: Inhibition of EGFR (unknown origin)
# [15] = tested on: HeLa; assay: Cytotoxicity against human HeLa cells incubated for 72 hrs by MTT assay; format: functional, cell-based
# [16] = target: Receptor tyrosine-protein kinase erbB-2 (Homo sapiens, UniProt P04626); assay: Inhibition of HER2 (unknown origin)
# [17] = tested on: HepG2; assay: Cytotoxicity against human HepG2 cells incubated for 72 hrs by MTT assay; format: functional, cell-based; details: HepG2, 72 h
# [18] = tested on: HeLa; assay: Antiproliferative activity against human HeLa cells; format: functional, cell-based
# [19] = target: Albumin (Homo sapiens, UniProt P02768); assay: Reversible binding affinity to human serum albumin
# [20] = target: Carbonic anhydrase 1 (Homo sapiens, UniProt P00915); assay: Binding affinity to human CA1 assessed as inhibition constant incubated for 10 mins by phenol red dye based stopped flow CO2 hydration assay
# [21] = target: Carbonic anhydrase 12 (Homo sapiens, UniProt O43570); assay: Binding affinity to human CA12 assessed as inhibition constant incubated for 10 mins by phenol red dye based stopped flow CO2 hydration assay
# [22] = target: Carbonic anhydrase 9 (Homo sapiens, UniProt Q16790); assay: Binding affinity to human CA9 assessed as inhibition constant incubated for 10 mins by phenol red dye based stopped flow CO2 hydration assay
# [23] = target: Carbonic anhydrase 2 (Homo sapiens, UniProt P00918); assay: Binding affinity to human CA2 assessed as inhibition constant incubated for 10 mins by phenol red dye based stopped flow CO2 hydration assay
# [24] = tested on: T98G; assay: Induction of apoptosis in human T98G cells relative to control; format: functional
# [25] = tested on: MDA-MB-231; assay: Antiproliferative activity against human MDA-MB-231 cells incubated for 96 hrs by MTT assay; details: MDA-MB-231, 96 h
# [26] = tested on: HepG2; assay: Induction of apoptosis in human HepG2 cells assessed as necrotic cells at 1 time IC50 incubated for 24 hrs by annexin V-FITC and PI staining based flow cytometry analysis relative to control; format: functional
# [27] = tested on: HCT-116; assay: Cytotoxicity against human HCT-116 cells incubated for 2 days by Neutral Red staining based assay; format: functional, cell-based; details: HCT-116, 48 h
# [28] = tested on: SK-LU-1; assay: Cytotoxicity against human SK-LU-1 cells incubated for 2 days by Neutral Red staining based assay; format: functional, cell-based; details: SK-LU-1, 48 h
# [29] = tested on: HepG2; assay: Cytotoxicity against human HepG2 cells incubated for 2 days by Neutral Red staining based assay; format: functional, cell-based; details: HepG2, 48 h
# [30] = tested on: HepG2; assay: Induction of apoptosis in human HepG2 cells at 2 times IC50 incubated for 24 hrs by annexin V-FITC and PI staining based flow cytometry analysis relative to control; format: functional
# [31] = tested on: HepG2; assay: Induction of apoptosis in human HepG2 cells assessed as necrotic cells at 2 times IC50 incubated for 12 hrs by annexin V-FITC and PI staining based flow cytometry analysis relative to control; format: functional
# [32] = tested on: HepG2; assay: Induction of apoptosis in human HepG2 cells assessed as necrotic cells at 2 times IC50 incubated for 24 hrs by annexin V-FITC and PI staining based flow cytometry analysis relative to control; format: functional
# [33] = Cytotoxicity against African green monkey Vero cells incubated for 2 days by Neutral Red staining based assay; format: toxicity, cell-based, Chlorocebus sabaeus
# [34] = tested on: HepG2; assay: Induction of apoptosis in human HepG2 cells assessed as necrotic cells at 1 time IC50 incubated for 12 hrs by annexin V-FITC and PI staining based flow cytometry analysis relative to control; format: functional
# [35] = tested on: HepG2; assay: Induction of apoptosis in human HepG2 cells at 1 time IC50 incubated for 24 hrs by annexin V-FITC and PI staining based flow cytometry analysis relative to control; format: functional
# [36] = tested on: MCF7; assay: Antiproliferative activity against human MCF7 cells measured after 72 hrs by MTT assay; format: functional, cell-based; details: MCF7, 72 h
# [37] = tested on: SK-OV-3; assay: Antiproliferative activity against human SK-OV-3 cells measured after 21 hrs by MTT assay; format: functional, cell-based; details: SK-OV-3, 21 h
# [38] = Induction of apoptosis in human MOG-G-CCM cells relative to control; format: functional
# [39] = Induction of autophagy in human MOG-G-CCM cells relative to control; format: functional
# Sequence of Carbonic anhydrase 12 (O43570 whole entry): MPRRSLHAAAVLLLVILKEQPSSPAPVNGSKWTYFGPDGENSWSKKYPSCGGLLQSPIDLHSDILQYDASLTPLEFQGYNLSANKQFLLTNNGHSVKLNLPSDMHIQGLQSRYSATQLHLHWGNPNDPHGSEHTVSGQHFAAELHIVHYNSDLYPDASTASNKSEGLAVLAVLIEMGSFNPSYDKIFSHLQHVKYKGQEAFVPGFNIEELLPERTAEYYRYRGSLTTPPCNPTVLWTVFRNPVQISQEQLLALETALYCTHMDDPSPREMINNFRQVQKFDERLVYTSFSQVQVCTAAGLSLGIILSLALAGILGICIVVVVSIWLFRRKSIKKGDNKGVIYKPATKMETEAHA
# Sequence of Vascular endothelial growth factor receptor 2 (P35968 whole entry): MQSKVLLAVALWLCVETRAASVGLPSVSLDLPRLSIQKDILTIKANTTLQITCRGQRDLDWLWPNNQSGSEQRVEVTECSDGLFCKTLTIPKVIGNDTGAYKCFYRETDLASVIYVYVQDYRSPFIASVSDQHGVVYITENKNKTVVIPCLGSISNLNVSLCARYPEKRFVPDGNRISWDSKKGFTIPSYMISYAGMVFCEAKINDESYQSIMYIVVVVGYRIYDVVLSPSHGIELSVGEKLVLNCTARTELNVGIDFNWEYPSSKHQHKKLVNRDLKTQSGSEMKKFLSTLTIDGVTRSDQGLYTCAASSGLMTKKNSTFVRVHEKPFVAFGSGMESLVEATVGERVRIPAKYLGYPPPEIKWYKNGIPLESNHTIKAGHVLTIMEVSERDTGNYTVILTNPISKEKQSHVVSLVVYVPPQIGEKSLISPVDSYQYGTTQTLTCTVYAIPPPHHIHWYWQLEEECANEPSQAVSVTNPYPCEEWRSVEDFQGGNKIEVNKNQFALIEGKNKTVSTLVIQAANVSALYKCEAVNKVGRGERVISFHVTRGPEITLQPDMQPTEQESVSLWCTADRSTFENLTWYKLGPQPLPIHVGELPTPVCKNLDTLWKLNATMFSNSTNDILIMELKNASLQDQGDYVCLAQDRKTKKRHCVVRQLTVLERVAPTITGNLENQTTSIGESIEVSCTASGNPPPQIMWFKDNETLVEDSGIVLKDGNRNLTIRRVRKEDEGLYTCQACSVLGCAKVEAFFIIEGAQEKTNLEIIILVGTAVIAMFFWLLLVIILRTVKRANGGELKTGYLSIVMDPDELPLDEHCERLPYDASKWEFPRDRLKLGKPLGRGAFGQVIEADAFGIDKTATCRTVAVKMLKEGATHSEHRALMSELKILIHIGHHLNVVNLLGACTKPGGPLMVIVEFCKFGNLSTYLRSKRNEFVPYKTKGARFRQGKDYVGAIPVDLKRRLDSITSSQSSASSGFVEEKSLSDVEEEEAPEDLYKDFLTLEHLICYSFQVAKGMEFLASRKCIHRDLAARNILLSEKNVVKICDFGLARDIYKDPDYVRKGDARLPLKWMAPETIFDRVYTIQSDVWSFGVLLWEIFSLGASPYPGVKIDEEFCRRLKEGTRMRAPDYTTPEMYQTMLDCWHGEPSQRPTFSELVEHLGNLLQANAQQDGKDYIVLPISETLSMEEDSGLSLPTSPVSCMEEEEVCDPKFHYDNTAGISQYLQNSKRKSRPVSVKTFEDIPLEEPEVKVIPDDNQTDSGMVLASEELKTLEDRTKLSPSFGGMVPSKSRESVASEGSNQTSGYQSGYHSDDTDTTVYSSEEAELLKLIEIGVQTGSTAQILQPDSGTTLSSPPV
# Sequence of Epidermal growth factor receptor (P00533 whole entry): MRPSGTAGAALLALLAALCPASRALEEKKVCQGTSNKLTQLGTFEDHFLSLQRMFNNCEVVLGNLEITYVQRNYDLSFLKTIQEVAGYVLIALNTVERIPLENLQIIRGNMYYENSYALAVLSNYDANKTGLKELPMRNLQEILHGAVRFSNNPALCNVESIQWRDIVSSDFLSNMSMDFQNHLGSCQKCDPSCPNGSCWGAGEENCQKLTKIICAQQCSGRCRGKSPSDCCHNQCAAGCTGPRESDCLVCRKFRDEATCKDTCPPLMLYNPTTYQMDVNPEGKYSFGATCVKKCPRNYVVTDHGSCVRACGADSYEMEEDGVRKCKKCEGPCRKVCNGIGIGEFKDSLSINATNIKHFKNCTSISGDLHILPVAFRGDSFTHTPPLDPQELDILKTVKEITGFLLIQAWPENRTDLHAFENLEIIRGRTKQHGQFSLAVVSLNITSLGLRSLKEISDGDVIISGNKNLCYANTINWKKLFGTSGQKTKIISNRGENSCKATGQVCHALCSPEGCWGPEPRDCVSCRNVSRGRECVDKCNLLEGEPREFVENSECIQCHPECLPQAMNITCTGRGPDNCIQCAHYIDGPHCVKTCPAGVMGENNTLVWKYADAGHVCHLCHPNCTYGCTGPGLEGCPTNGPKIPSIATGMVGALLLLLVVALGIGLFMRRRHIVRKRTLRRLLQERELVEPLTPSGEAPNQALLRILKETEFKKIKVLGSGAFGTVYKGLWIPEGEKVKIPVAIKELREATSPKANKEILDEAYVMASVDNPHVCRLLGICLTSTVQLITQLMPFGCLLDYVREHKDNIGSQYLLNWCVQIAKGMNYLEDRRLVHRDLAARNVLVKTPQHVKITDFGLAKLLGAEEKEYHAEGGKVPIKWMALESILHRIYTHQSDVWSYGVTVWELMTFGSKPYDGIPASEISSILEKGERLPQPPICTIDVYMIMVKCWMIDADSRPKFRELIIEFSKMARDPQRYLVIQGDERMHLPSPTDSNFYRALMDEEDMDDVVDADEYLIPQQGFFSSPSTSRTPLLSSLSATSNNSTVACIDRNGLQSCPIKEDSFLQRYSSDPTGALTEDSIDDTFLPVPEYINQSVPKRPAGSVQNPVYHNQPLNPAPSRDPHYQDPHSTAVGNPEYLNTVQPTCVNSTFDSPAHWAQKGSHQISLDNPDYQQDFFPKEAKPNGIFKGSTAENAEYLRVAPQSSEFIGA
# Sequence of Albumin (P02768 whole entry): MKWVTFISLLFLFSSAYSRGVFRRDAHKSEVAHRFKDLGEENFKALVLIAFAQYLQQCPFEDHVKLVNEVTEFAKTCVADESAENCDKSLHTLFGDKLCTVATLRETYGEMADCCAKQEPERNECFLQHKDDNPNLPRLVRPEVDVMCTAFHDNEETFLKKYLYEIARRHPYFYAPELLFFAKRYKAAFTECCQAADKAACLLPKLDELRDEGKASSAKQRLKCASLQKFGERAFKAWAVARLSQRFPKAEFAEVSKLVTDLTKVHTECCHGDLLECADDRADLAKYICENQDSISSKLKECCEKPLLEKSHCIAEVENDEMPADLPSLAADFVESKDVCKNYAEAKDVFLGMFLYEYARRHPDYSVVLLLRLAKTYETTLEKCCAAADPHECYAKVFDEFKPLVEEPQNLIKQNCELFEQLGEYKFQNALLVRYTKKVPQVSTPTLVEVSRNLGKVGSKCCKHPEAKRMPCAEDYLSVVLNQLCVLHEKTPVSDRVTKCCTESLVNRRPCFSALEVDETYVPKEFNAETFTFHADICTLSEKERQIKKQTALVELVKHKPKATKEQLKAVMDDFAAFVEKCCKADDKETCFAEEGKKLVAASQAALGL
# Sequence of Receptor tyrosine-protein kinase erbB-2 (P04626 whole entry): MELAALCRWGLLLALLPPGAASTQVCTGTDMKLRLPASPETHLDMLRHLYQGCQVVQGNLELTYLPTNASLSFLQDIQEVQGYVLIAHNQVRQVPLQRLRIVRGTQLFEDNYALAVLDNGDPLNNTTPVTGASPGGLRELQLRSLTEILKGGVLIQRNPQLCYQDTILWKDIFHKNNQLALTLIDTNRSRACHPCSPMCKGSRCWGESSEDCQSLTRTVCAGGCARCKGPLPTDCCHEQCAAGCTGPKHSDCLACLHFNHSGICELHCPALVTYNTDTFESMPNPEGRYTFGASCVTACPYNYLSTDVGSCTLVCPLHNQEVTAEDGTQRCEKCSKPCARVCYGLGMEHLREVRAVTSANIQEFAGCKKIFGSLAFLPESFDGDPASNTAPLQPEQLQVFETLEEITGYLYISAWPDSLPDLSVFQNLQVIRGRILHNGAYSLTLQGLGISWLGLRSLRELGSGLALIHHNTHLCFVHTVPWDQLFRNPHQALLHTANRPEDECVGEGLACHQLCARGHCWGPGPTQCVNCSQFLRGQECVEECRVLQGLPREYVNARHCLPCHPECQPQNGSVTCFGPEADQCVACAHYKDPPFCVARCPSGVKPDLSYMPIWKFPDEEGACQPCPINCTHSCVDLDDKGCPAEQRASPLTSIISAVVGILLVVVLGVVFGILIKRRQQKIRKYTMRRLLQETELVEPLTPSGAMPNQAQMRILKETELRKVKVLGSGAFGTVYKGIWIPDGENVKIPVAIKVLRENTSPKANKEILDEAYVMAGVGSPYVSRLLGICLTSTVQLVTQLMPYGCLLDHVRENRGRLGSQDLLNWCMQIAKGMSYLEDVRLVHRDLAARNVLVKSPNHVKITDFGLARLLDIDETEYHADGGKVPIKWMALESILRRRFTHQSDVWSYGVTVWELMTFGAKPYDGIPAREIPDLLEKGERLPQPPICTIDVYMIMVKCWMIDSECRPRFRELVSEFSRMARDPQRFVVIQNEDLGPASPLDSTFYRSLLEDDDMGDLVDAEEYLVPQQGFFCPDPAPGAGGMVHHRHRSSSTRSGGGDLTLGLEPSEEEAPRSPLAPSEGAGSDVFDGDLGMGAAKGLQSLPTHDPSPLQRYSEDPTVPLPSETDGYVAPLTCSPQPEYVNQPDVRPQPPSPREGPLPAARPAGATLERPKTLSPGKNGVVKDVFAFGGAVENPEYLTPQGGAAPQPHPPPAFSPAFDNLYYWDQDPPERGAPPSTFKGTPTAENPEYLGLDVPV
# Sequence of Carbonic anhydrase 1 (P00915 whole entry): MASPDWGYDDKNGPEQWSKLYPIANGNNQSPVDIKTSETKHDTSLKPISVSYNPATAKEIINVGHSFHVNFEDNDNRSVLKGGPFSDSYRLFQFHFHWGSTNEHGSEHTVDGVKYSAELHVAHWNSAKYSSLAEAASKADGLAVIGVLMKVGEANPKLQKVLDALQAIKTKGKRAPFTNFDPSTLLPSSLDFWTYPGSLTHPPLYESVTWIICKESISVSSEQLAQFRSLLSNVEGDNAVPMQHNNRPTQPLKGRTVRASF
structure (smiles),measurement,setting,value
COC(=O)C(Cc1ccc(O)cc1)NC(=O)c1cc2ccccc2oc1=O (stereo unspecified),IC50,[1],4980 nM
same,IC50,[2],8600 nM
same,IC50,[3],34200 nM
same,Activity,[4],97.82%
COC(=O)C(CCSC)NC(=O)CCNC(=O)c1cc2ccccc2oc1=O (stereo unspecified),IC50,[1],5850 nM
same,IC50,[2],4100 nM
same,IC50,[3],23600 nM
same,Activity,[4],97.35%
COc1ccc2oc(=O)cc(COc3c(C)occc3=O)c2c1,IC50,[5],2470 nM
same,IC50,[6],2470 nM
O=C(CCCCCNC(=O)c1cc(C(=O)NCCCCCC(=O)Nc2ccc(-c3c(-c4ccc(OCCN5CCCCC5)cc4)c4ccc(OCCN5CCCCC5)cc4oc3=O)cc2)cc(C(=O)NCCCCCC(=O)Nc2ccc(-c3c(-c4ccc(OCCN5CCCCC5)cc4)c4ccc(OCCN5CCCCC5)cc4oc3=O)cc2)c1)Nc1ccc(-c2c(-c3ccc(OCCN4CCCCC4)cc3)c3ccc(OCCN4CCCCC4)cc3oc2=O)cc1,IC50,[7],10000 nM
same,IC50,[8],10000 nM
same,IC50,[9],10000 nM
COc1ccc2c3c(c(=O)oc2c1)CC(C(C)(O)CC/C=C(\C)CCC=C(C)C)O3 (stereo unspecified),IC50,[10],9200 nM
same,IC50,[11],19800 nM
same,IC50,[12],15600 nM
CC(=O)OC[C@H]1O[C@@H](N(C(C)=O)C2=NN(C(C)=O)C(c3cc(=O)oc4cc(OCCC(C)C)ccc34)S2)[C@H](OC(C)=O)[C@@H](OC(C)=O)[C@@H]1OC(C)=O (stereo partly specified),IC50,[13],1180 nM
same,IC50,[14],220 nM
same,IC50,[15],1180 nM
same,IC50,[16],130 nM
same,IC50,[17],1180 nM
Cc1c(C(C)C)c(=O)oc2cc(O)cc(O)c12,IC50,[18],8000 nM
CCOc1ccc2c(C3SC(N(C(C)=O)[C@@H]4O[C@H](COC(C)=O)[C@H](OC(C)=O)[C@H](OC(C)=O)[C@H]4OC(C)=O)=NN3C(C)=O)cc(=O)oc2c1 (stereo partly specified),IC50,[13],1180 nM
same,IC50,[14],220 nM
same,IC50,[15],1180 nM
same,IC50,[16],130 nM
same,IC50,[17],1180 nM
Cc1cc(=O)oc2cc(NCc3cc([N+](=O)[O-])ccc3O)ccc12,Kd,[19],30 nM
Cc1ccc(C(=O)Nc2ccc3c(c2)C=CS(=O)(=O)O3)cc1S(=O)(=O)N1C[C@@H](C)O[C@@H](C)C1,Ki,[20],99.4 nM
same,Ki,[21],30.6 nM
same,Ki,[22],30.6 nM
same,Ki,[23],99.4 nM
Cc1ccc2oc(=O)cc(COc3c(C)occc3=O)c2c1,IC50,[5],2470 nM
same,IC50,[6],2470 nM
Cc1cc(=O)oc2cc(NCc3cc(Cl)cc(Cl)c3O)ccc12,Kd,[19],30 nM
O=C(Nc1ccc2c(c1)C=CS(=O)(=O)O2)c1ccc(F)c(S(=O)(=O)N2CCCCC2)c1,Ki,[20],99.4 nM
same,Ki,[21],30.6 nM
same,Ki,[22],30.6 nM
same,Ki,[23],99.4 nM
O=c1cc(O)c2ccccc2o1 [4-HYDROXYCOUMARINS],Activity,[24],15%
same,IC50,[25],> 100000 nM
C=CC(C)(C)c1cc2c(O)c3c(c(C(C)(C)C=C)c2oc1=O)OC(C)(C)C=C3 [CLAUSARIN],Activity,[26],1.6%
same,IC50,[27],44600 nM
same,IC50,[28],6900 nM
same,IC50,[29],7600 nM
same,Activity,[30],64.2%
same,Activity,[31],27.4%
same,Activity,[32],2.7%
same,IC50 at 2 days,[33],78200 nM
same,Activity,[34],6.8%
same,Activity,[35],49.7%
O=c1ccc2ccc(O)c(O)c2o1 [DAPHNETIN],IC50,[36],73000 nM
COc1cccc2c1C(=O)c1c(O)c3c(c(O)c1C2=O)C[C@@](O)(C(=O)CO)C[C@@H]3O[C@H]1C[C@H](N)[C@H](O)[C@H](C)O1 [DOXORUBICIN],IC50,[2],9650 nM
same,IC50,[25],600 nM
O=c1ccc2cc(O)c(O)cc2o1 [ESCULETIN],IC50,[36],193000 nM
CC(C)(O[C@@H]1O[C@H](CO)[C@@H](O)[C@H](O)[C@H]1O)[C@H]1Cc2cc3ccc(=O)oc3cc2O1 [NODAKENIN],IC50,[37],> 100000 nM
O=c1ccc2ccc(O[C@@H]3O[C@H](CO)[C@@H](O)[C@H](O)[C@H]3O)cc2o1 [SKIMMIN],IC50,[37],> 100000 nM
CNC(=O)c1cc(Oc2ccc(NC(=O)Nc3ccc(Cl)c(C(F)(F)F)c3)cc2)ccn1 [SORAFENIB],Activity,[38],25%
same,Activity,[39],1%
COc1c2c(cc3oc(=O)ccc13)OC(C)(C)C=C2 [XANTHOXYLETIN],Activity,[31],2.9%
same,Activity,[34],2.5%
